Laboratory results: US20250339391A1, “METHODS FOR EFFECTIVE MANAGEMENT OF PAIN” (South Rampart Pharma, Inc., priority 2024, published 2025)
“Also recorded” adds a separate entry of the source. Read-outs that look alike come from different tables or passages of the source.

What was measured:
CD-1 male mice [1] = details: for mortality by 72 hours: n=10
Experimental: CD-1 male mice obtained from Charles River Laboratories underwent a one-week acclimation period. They were housed under a 12-hour day/night cycle, with unrestricted access to food and water. Before experimentation, mice were fasted for 15 hours. […] Each treatment group consisted of 10 mice. Post-dosing, the mice were monitored at 6-hour intervals over 72 hours for signs of becoming moribund. An investigator blinded to the treatment groups conducted the moribund state assessment.

male CD1 mice = assay: Baker yeast-induced hyperthermia antipyresis assay; type: in vivo, mouse; details: 15% yeast ip, drug 75 mg/kg per os
Experimental: (§1) Antipyresis experiments were carried out with n=60 CD-1 male mice weighing between 45-50 g. All mice were kept in a 12-h day/12-h night cycle with free access to food and water ad libitum. After habituating and acclimating the mice for a week, each mouse was briefly anesthetized for 1 min with 1% isoflurane and implanted subcutaneously a transmitter probe that records core body temperature—Implantable Programmable Temperature Transponder (IPTT-300) by Bio Medic Data Systems (BMDS), DE, USA. The mice were allowed to recover for at least one week from the surgery before any recordings were made and observed in their home cages prior to pyrogen challenge for inducing fever. Temperatures were recorded using the BMDS DAS-8027-IUS data reading system.
(15% yeast, […]) (MilliporeSigma, Billerica, MA, USA) was used to induce fever. All animals used in this assay were male CD1 mice, which were fasted overnight (15 h) before the start of the assay. Mice received either yeast in 0.9% saline (sterile) (vehicle) or just 0.9% saline as an ip injection. […] All mice that didn't show a significant change in body temperature or appeared sick post-pyrogen challenge were excluded (n=5) from subsequent drug administrations.
Drug injection/concentration: All drugs and vehicle (10% DMSO: 10% labrasol:80% PEG400) were administered by oral gavage, PO administration. […]

[2] = system: CD1 (young male and female) or C57BL/6 (aged male) mice; assay: Cold tail flick somatic pain assay; type: in vivo, mouse; details: for analgesia in cold tail-flick assay: 100 mg/kg, all cohorts; for tail withdrawal time (latency) to cold stimulation: 32 and 100 mg/kg PO, 4 °C water
Experimental: Half of the tail was immersed in ice-cold water maintained at 4° C. For the tail-flick assays, we used n=70 aged male mice, n=90 young male mice, and n=120 young female mice. Based on the availability of mice at the time of the experiments, different numbers of animals were assigned in different cohorts of experimental animals. Tail flick assay experiments were conducted on an open bench in a dedicated room at the LSUHSC New Orleans Neuroscience Center of Excellence vivarium. Mice were allowed to acclimate to the laboratory environment for 1 h prior to testing. To restrain the mice for the test, disposable plastic 50 mL screw-capped conical centrifuge tubes were cut at the tip to create a 0.5 cm opening to allow the mice to breathe freely. Another 0.5 cm opening was cut into the cap to allow access of the tail to the water bath. A 500 mL glass beaker was filled with 450 mL of ice-cold distilled water maintained at 4° C. with the addition of ice and determined with a glass thermometer. Mice were held over the opening of the water bath, and their tails submerged approximately halfway into the water. The nociceptive threshold was taken as the latency until the mice flicked their tail tip or removed the tail. The time from immersion to the attempted tail tip removal was measured to 1/10th of a sec with a digital laboratory timer. To minimize damage to the tail, a 60-sec cut-off was utilized. […] Injections were at doses of 32 mg/kg and 100 mg/kg. 30 min post-drug administration tail-flick/withdrawal latency was measured.

CD-1 male mice [3] = assay: LPS fever induction antipyresis assay; type: in vivo, mouse; details: LPS 100 μg/kg ip, drug 75 mg/kg po, 2 h post drug
Experimental: as §1
All mice were fasted overnight (15 h) with free access to water ad libitum prior to the pyrogen challenge. For the induction of fever, LPS from E. coli (100 μg/kg, 0111:B4) (MilliporeSigma, Billerica, MA, USA) was used. Mice received either LPS in 0.9% saline (sterile) (vehicle) or just 0.9% saline as an intraperitoneal (ip) injection.
Drug injection/concentration: All drugs and vehicle (10% DMSO: 10% labrasol:80% PEG400) were administered by oral gavage, PO dosing. Each dosing volume was ˜0.3-0.4 mL per mouse. […] We chose this dose to record antipyretic effect in a low dose that doesn't cause hypothermia in mice.

[4] = Stability of API and oral nanosuspension; type: physicochemical
Experimental: The drug therapeutic candidate is manufactured in a two-step process (Latitude Pharmaceuticals, Inc., San Diego, CA USA). First, SRP-001 is jet milled. Second, the milled API is dispersed in a solution comprising 1% hydroxypropyl cellulose (1% HPC) and sterile water for injection and subjected to wet milling. The target particle size is approximately D90 0.15 μm. […] An oral nanoparticle suspension containing 100 mg/mL SRP-001 in aqueous 1% HPC preserved with 0.1% sodium benzoate was manufactured for use in nonclinical studies as Lot LPI2021028 and stored at 5° C.±3° C. […] The same formulation as above was manufactured under cGMP for use in clinical studies as Lot LPI2021031 and stored at 5° C.±3° C. […] This lot has been placed on stability at 5° C., 25° C./60% RH, and 40° C./75% RH. Finally, an appearance-matched placebo consisting of 2% microcrystalline cellulose in aqueous 1% HPC preserved with 0.1% sodium benzoate and 0.05% EDTA disodium dihydrate was manufactured under cGMP for use in clinical studies. The above oral suspensions were manufactured by Latitude Pharmaceuticals Inc. (San Diego, CA, USA).

[5] = 992 oral gavage (ApAP 150 mg/kg, SRP-001 402 mg/kg)

| SMILES | mortality by 72 hours (CD-1 male mice [1]; [5]) | mortality by 72 hours (CD-1 male mice [1]; 1,984 oral gavage (ApAP 300 mg/kg)) | mortality by 72 hours (CD-1 male mice [1]; 3,969 oral gavage (ApAP 600 mg/kg)) | mortality reached within 72 hours (Kaplan-Meier) (CD-1 male mice [1]; highest dose) | antipyresis, core body temperature (male CD1 mice) | analgesia in cold tail-flick assay [2] | tail withdrawal time (latency) to cold stimulation [2] | antipyresis (CD-1 male mice [3]) | API stable for ([4]; 25° C./60% RH) | API stable for ([4]; 40° C./75% RH) | equimolar (μmol/kg) ED50 / dose-response curve relative to ApAP ([2]; tail flick) |
| --- | --- | --- | --- | --- | --- | --- | --- | --- | --- | --- | --- |
| CC(=O)Nc1ccc(O)cc1 [ApAP, acetaminophen] | absence of mortality | 1/10 | 3/10 | 70% | subsequent reduction in core body temperature | significant analgesia | increased tail withdrawal time (latency) | comparable antipyresis |  |  |  |
| CCN(CC)C(=O)c1ccccc1S(=O)(=O)NCC(=O)Nc1ccc(O)cc1 [SRP-001, N,N-diethyl-2-[[2-(4-hydroxyanilino)-2-oxo-ethyl]sulfamoyl]benzamide] | absence of mortality |  |  |  | subsequent reduction in core body temperature | significant analgesia | increased tail withdrawal time (latency) | comparable antipyresis | at least 9 months | ≥ 6 months | comparable or improved ED50; also recorded: clear shift to the left |
